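Compound exposure: 48 hours, 5 concentrations, 96-well plates. TGI: total growth inhibition.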
Tests used:
Test in all cases: NCI tumour cell line growth inhibition, 48 h
A498 renal = test system: A498 renal
HCC-2998 colon = test system: HCC-2998 colon
SF-268 CNS = test system: SF-268 CNS
DLD-1 colon = test system: DLD-1 colon
MALME-3M melanoma = test system: MALME-3M melanoma
SK-MEL-28 melanoma = test system: SK-MEL-28 melanoma
M14 melanoma = test system: M14 melanoma
NCI-H23 lung = test system: NCI-H23 lung
CCRF-CEM leukemia = test system: CCRF-CEM leukemia
OVCAR-5 ovarian = test system: OVCAR-5 ovarian
OVCAR-3 ovarian = test system: OVCAR-3 ovarian
EKVX NSCLC = test system: EKVX NSCLC
CAKI-1 renal = test system: CAKI-1 renal
TK-10 renal = test system: TK-10 renal
HCT-116 colon = test system: HCT-116 colon
UACC-257 melanoma = test system: UACC-257 melanoma
U251 CNS = test system: U251 CNS
KM12 colon = test system: KM12 colon
786-0 renal = test system: 786-0 renal
HT29 colon = test system: HT29 colon
RXF 393 renal = test system: RXF 393 renal
SK-MEL-2 melanoma = test system: SK-MEL-2 melanoma
LXFL 529 NSCLC = test system: LXFL 529 NSCLC
HOP-92 NSCLC = test system: HOP-92 NSCLC
HOP-62 NSCLC = test system: HOP-62 NSCLC
OVCAR-4 ovarian = test system: OVCAR-4 ovarian
A549 NSCLC = test system: A549 NSCLC
K-562 leukemia = test system: K-562 leukemia
NCI-H460 lung = test system: NCI-H460 lung
M19-MEL melanoma = test system: M19-MEL melanoma
SF-295 CNS = test system: SF-295 CNS
SF-539 CNS = test system: SF-539 CNS
NCI-H522 lung = test system: NCI-H522 lung
KM20L2 colon = test system: KM20L2 colon
ACHN renal = test system: ACHN renal
SNB-75 CNS = test system: SNB-75 CNS
UO-31 renal = test system: UO-31 renal
SNB-19 CNS = test system: SNB-19 CNS
SK-OV-3 ovarian = test system: SK-OV-3 ovarian
NCI-H226 lung = test system: NCI-H226 lung
DMS 273 small cell lung = test system: DMS 273 small cell lung
IGROV1 ovarian = test system: IGROV1 ovarian
SR leukemia = test system: SR leukemia
HL-60(TB) leukemia = test system: HL-60(TB) leukemia
DMS 114 small cell lung = test system: DMS 114 small cell lung
RXF-631 renal = test system: RXF-631 renal
SNB-78 CNS = test system: SNB-78 CNS
MOLT-4 leukemia = test system: MOLT-4 leukemia
OVCAR-8 ovarian = test system: OVCAR-8 ovarian
MCF7 breast = test system: MCF7 breast
PC-3 prostate = test system: PC-3 prostate
MDA-MB-231 breast = test system: MDA-MB-231 breast
NCI/ADR-RES ovarian = test system: NCI/ADR-RES ovarian
T-47D breast = test system: T-47D breast
MDA-N = test system: MDA-N
COLO 205 colon = test system: COLO 205 colon
SK-MEL-5 melanoma = test system: SK-MEL-5 melanoma
SW-620 colon = test system: SW-620 colon
UACC-62 melanoma = test system: UACC-62 melanoma
BT-549 breast = test system: BT-549 breast
LOX IMVI melanoma = test system: LOX IMVI melanoma
SN12C renal = test system: SN12C renal
HS 578T breast = test system: HS 578T breast
DU-145 prostate = test system: DU-145 prostate
RPMI-8226 leukemia = test system: RPMI-8226 leukemia
MDA-MB-435 = test system: MDA-MB-435
HCT-15 colon = test system: HCT-15 colon
XF 498 CNS = test system: XF 498 CNS
HOP-18 NSCLC = test system: HOP-18 NSCLC

Measured: TGI

CC1OC(OC2CCCc3c(O)c4c(c(O)c32)C(=O)c2ccccc2C4=O)CC(N)C1O (stereo not drawn)
3.84 µM: KM20L2 colon
2.8 µM: NCI-H460 lung
3.02 µM: TK-10 renal
2.94 µM: LXFL 529 NSCLC | HOP-62 NSCLC
2.87 µM: HT29 colon
3.11 µM: HCT-116 colon | UO-31 renal
3.44 µM: OVCAR-5 ovarian | U251 CNS
3.35 µM: ACHN renal
2.98 µM: KM12 colon
3 µM: UACC-257 melanoma
3.22 µM: NCI-H23 lung | SF-295 CNS
3.27 µM: MALME-3M melanoma | EKVX NSCLC
3.01 µM: SF-539 CNS
3.04 µM: SNB-19 CNS
3.23 µM: A498 renal
3.37 µM: A549 NSCLC
3.32 µM: SK-MEL-28 melanoma
3.51 µM: HCC-2998 colon
2.69 µM: DLD-1 colon
2.42 µM: SK-OV-3 ovarian
2.86 µM: HOP-92 NSCLC
2.91 µM: CAKI-1 renal
2.23 µM: RXF 393 renal
3.24 µM: M19-MEL melanoma
3.21 µM: M14 melanoma | SK-MEL-2 melanoma
3.06 µM: NCI-H522 lung
2.64 µM: CCRF-CEM leukemia
3.29 µM: SF-268 CNS
2.35 µM: K-562 leukemia
3.2 µM: OVCAR-4 ovarian
2.55 µM: 786-0 renal
2.66 µM: SNB-75 CNS
2.62 µM: OVCAR-3 ovarian

O=P(O)(O)C1CCCC(P(=O)(O)O)N1 (stereo not drawn)
not listed: HCC-2998 colon | DLD-1 colon | MALME-3M melanoma | OVCAR-3 ovarian | CAKI-1 renal | 786-0 renal | SK-MEL-2 melanoma | LXFL 529 NSCLC | OVCAR-4 ovarian | K-562 leukemia | SF-539 CNS | SNB-75 CNS | MCF7 breast | PC-3 prostate | MDA-MB-231 breast | NCI/ADR-RES ovarian | T-47D breast | MDA-N | COLO 205 colon | SK-MEL-5 melanoma | SW-620 colon | UACC-62 melanoma | BT-549 breast | LOX IMVI melanoma | SN12C renal | HS 578T breast | DU-145 prostate | RPMI-8226 leukemia | MDA-MB-435 | HCT-15 colon | XF 498 CNS | HOP-18 NSCLC
> 100 µM: all other assays above

O=c1cc(O)c2ccccc2o1
not listed: DLD-1 colon | SK-MEL-2 melanoma | LXFL 529 NSCLC | M19-MEL melanoma | KM20L2 colon | SK-OV-3 ovarian | DMS 273 small cell lung | DMS 114 small cell lung | RXF-631 renal | SNB-78 CNS | HCT-15 colon | XF 498 CNS | HOP-18 NSCLC
> 100 µM: all other assays above

Cc1cc(S(=O)(=O)n2ccnc2Oc2ccccc2)c(SSc2cc(Cl)c(C)cc2S(=O)(=O)n2ccnc2Oc2ccccc2)cc1Cl
38.6 µM: HS 578T breast
not listed: DLD-1 colon | NCI-H23 lung | CCRF-CEM leukemia | LXFL 529 NSCLC | HOP-62 NSCLC | M19-MEL melanoma | SF-295 CNS | KM20L2 colon | ACHN renal | DMS 273 small cell lung | DMS 114 small cell lung | RXF-631 renal | SNB-78 CNS | MOLT-4 leukemia | XF 498 CNS | HOP-18 NSCLC
> 100 µM: all other assays above

C/C=C/C(C#N)(Cc1ccccc1)OP1(=O)OC(c2ccccc2)C(C)N1C (stereo not drawn)
41.9 µM: HL-60(TB) leukemia
41.2 µM: CCRF-CEM leukemia
78.4 µM: MOLT-4 leukemia
not listed: DLD-1 colon | LXFL 529 NSCLC | OVCAR-4 ovarian | M19-MEL melanoma | KM20L2 colon | NCI-H226 lung | DMS 273 small cell lung | DMS 114 small cell lung | RXF-631 renal | SNB-78 CNS | XF 498 CNS | HOP-18 NSCLC
> 100 µM: all other assays above

C[n+]1ccc(-c2cc[n+](C)cc2)cc1
> 58.4 µM: SNB-78 CNS
> 21.6 µM: M19-MEL melanoma
> 31.6 µM: SR leukemia
> 33.5 µM: NCI-H460 lung
97.8 µM: HCC-2998 colon
> 53.3 µM: LXFL 529 NSCLC
> 47.2 µM: DLD-1 colon
> 50.3 µM: A498 renal
24.8 µM: HL-60(TB) leukemia
3.93 µM: RXF 393 renal
66.5 µM: HOP-62 NSCLC
30.3 µM: SN12C renal
> 44.5 µM: HCT-116 colon
> 81.9 µM: HT29 colon
> 95 µM: A549 NSCLC
17 µM: XF 498 CNS
> 29.3 µM: NCI-H23 lung
> 70.9 µM: U251 CNS
3.21 µM: OVCAR-4 ovarian
> 46.6 µM: OVCAR-3 ovarian
> 63.6 µM: HOP-92 NSCLC
> 60.2 µM: EKVX NSCLC
> 35.6 µM: SK-MEL-5 melanoma
99.8 µM: SNB-75 CNS
> 35.9 µM: M14 melanoma
> 48.1 µM: LOX IMVI melanoma
> 38.5 µM: DMS 273 small cell lung
> 38.1 µM: IGROV1 ovarian
13.1 µM: SK-MEL-2 melanoma
0.981 µM: MALME-3M melanoma
> 37.6 µM: SF-295 CNS
> 92.4 µM: KM12 colon
> 46.4 µM: SF-539 CNS
> 34.2 µM: NCI-H522 lung
> 24.7 µM: DMS 114 small cell lung
37.9 µM: OVCAR-5 ovarian
3.09 µM: UACC-257 melanoma
> 38.3 µM: COLO 205 colon
> 52.3 µM: HCT-15 colon
43.1 µM: NCI-H226 lung
not listed: RXF-631 renal | MCF7 breast | PC-3 prostate | MDA-MB-231 breast | NCI/ADR-RES ovarian | T-47D breast | MDA-N | UACC-62 melanoma | BT-549 breast | HS 578T breast | DU-145 prostate | MDA-MB-435
> 100 µM: all other assays above

O=C(O)CCCSc1nc2ccccc2s1
not listed: DLD-1 colon | LXFL 529 NSCLC | M19-MEL melanoma | KM20L2 colon | DMS 273 small cell lung | DMS 114 small cell lung | RXF-631 renal | SNB-78 CNS | XF 498 CNS | HOP-18 NSCLC
> 100 µM: all other assays above
